Assay results taken from patent publication US20100173331A1, “NOVEL NOTCH-ORIGIN POLYPEPTIDES AND BIOMARKERS AND REAGENTS USING THE SAME” (priority 2002, published 2010).

Target: T1, presenilin (Homo sapiens, UniProt P49768)
T1 construct: endogenous in cells; probably K293
Test: Pulse-chase of cells stably expressing F-NEXT with or without γ-secretase inhibitor; immunoprecipitation/SDS-PAGE of media (Nβ release) and lysates (NICD)
Type: cell-based
Details: 1 μM inhibitor, 1 hour pulse, 2-hour chase
Experimental: Human embryonic kidney 293 (K293), N2a and COS cells were cultured in DMEM supplemented with 10% fetal bovine serum, 1% penicillin/streptomycin, and 200 μg/ml zeocin (to select for PS1 expression), and/or 100 μg/ml hygromycin (to select for NΔE and F-NEXT expression). The K293 can stably express wild-type PS1, PS1 L286V, or PS1 D385N (Okochi et al, 2000, Kulic et al, 2000, Wolfe et al., 1999). The transfection with NΔE or F-NEXT was performed by means of a product named Lipofectamine 2000 (Invitrogen).
To determine NΔE N-terminal fragment (NTF: Nβ) release from NΔE expressing cells, K293 cells stably transfected with NΔE or NICD were grown to confluence in a 10 cm dish. The cells were then metabolically pulse-labeled for 2 hours with 300 μCi [^3H] amino acids (tritiated amino acid mixture, Amersham) in Earle's Balanced Salt Solution supplemented with MEM Vitamine Solution (Gibco) and several cold amino acids, followed by a 6-hour chase by 10% FCS/DMEM. To examine Nβ release, cells expressing F-NEXT were, at first, starved of methinine for 40 min with methionine-free media and then pulse-labeled for 1 hour with 400 μCi [^35S] amino acid mixture (Redivue Promix, Amersham) in methionine-free DMEM, followed by chasing for various time periods with the chase media containing 10% FCS/DMEM supplemented with excess cold methionine. […]

CC(C)C[C@H](NC(=O)[C@H](Cc1ccccc1)C[C@@H](O)[C@H](Cc1ccccc1)NC(=O)OC(C)(C)C)C(=O)N[C@@H](Cc1ccccc1)C(N)=O [L685,458, [(2R,4R,5S)-2-Benzyl-5-(Boc-amino)-4-hydroxy-6-phenyl-hexanoyl]-Leu-Phe-NH2]
NICD band in cell lysates (S3 cleavage), immunoprecipitated with 9E10 (FIG. 5B lower panel): hardly visible
Nβ release to culture media (S4 cleavage), immunoprecipitated with M2-agarose (FIG. 5B upper panel): decreased drastically
